The values that follow come from patent US11524966B1 (Valo Early Discovery, Inc., priority 2017, dated 2022).

SMILES strings stand for the structures.

This assay concerns the target T1, USP25 (USP25-His6, Boston Biochem E-546) (Homo sapiens, UniProt Q9UHP3).
T1 construct: His6; purchased Boston Biochem E-546
T1 sequence (Q9UHP3 1-1055): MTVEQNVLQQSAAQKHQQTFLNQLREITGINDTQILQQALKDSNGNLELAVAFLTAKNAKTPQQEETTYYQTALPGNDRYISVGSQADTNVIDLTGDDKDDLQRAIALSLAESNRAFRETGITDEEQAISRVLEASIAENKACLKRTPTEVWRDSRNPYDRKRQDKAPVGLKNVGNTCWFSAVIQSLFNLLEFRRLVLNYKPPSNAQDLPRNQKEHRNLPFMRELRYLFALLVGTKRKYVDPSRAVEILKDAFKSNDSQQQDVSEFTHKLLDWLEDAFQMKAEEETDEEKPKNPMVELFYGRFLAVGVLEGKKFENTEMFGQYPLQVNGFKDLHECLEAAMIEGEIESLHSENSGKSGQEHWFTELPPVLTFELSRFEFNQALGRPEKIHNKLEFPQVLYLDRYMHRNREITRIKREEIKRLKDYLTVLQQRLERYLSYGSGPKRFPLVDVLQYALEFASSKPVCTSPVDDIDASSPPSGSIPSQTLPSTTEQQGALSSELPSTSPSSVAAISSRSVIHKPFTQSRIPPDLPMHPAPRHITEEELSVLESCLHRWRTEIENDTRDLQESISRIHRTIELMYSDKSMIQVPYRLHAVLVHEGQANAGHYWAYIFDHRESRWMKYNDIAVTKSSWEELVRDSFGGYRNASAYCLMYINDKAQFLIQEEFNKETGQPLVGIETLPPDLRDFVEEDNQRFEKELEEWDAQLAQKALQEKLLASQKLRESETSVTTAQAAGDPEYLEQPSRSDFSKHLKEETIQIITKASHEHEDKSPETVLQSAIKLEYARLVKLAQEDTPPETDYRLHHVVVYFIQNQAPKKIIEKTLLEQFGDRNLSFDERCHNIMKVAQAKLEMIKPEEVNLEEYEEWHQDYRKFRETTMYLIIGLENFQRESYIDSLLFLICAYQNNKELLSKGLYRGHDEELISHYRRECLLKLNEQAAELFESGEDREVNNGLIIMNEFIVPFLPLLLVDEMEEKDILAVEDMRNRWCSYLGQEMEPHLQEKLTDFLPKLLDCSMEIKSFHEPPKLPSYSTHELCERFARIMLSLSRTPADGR
The experiment in a line: Ubiquitin-Rhodamine 110 Assay for USP25 Activity, Example A-2. The following applies: Ubiquitin-Rhodamine 110 assay, Example A-2; read-out: USP25 A-2 IC50 range. The assay is classed as biochemical. A digest of the protocol: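 Fluorescence (ex 485, em 535 nm) of cleaved ubiquitin-rhodamine 110 (25 nM, below Km) gave IC50 via 4-parameter logistic fit. Reaction: 45 min, room temperature, citric acid stop, after 30 min compound preincubation with 75 pM USP25-His6 in 20 mM Tris pH 8.0, 3 mM BME, 0.03% BGG, 0.01% Triton X-100; top dose 25 μM.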
For `Cc1ccc2c(N)c(C(=O)N[C@H]3COc4cc(N5CC[C@@H]6CC[C@@H](N)C[C@@H]65)ccc4C3)sc2n1` [Example 233, N-[(3R)-7-[(3aS,6R,7aS)-6-amino-octahydro-1H-indol-1-yl]-3,4-dihydro-2H-1-benzopyran-3-yl]-3-amino-6-methylthieno[2,3-b]pyridine-2-carboxamide], the IC50 is 1 to 50 nM. On to `Cc1ccc2c(N)c(C(=O)N[C@H]3COc4cc(N5CC[C@H]6CC[C@@H](N)C[C@H]65)ccc4C3)sc2n1` [Example 231, N-[(3R)-7-[(3aR,6R,7aR)-6-amino-octahydro-1H-indol-1-yl]-3,4-dihydro-2H-1-benzopyran-3-yl]-3-amino-6-methylthieno[2,3-b]pyridine-2-carboxamide], for which the half-maximal inhibitory concentration (IC50) fell in the range of 1 to 50 nM.

As to `Cc1ccc2c(N)c(C(=O)N[C@H]3COc4cc(N5CC[C@H]6CCNC[C@H]65)ccc4C3)sc2n1` [Example 224, N-[(3R)-7-[(3aR,7aS)-octahydro-1H-pyrrolo[2,3-c]pyridin-1-yl]-3,4-dihydro-2H-1-benzopyran-3-yl]-3-amino-6-methylthieno[2,3-b]pyridine-2-carboxamide], the IC50 lay within 50 to 200 nM. In the case of `Cc1cc(C)c2c(N)c(C(=O)N[C@H]3COc4c(C#N)c(N5CC6CCC(C5)N6)cc(F)c4C3)sc2n1` [Example 230, 3-amino-N-[(3R)-8-cyano-7-{3,8-diazabicyclo[3.2.1]octan-3-yl}-5-fluoro-3,4-dihydro-2H-1-benzopyran-3-yl]-4,6-dimethylthieno[2,3-b]pyridine-2-carboxamide] it was 200 to 2000 nM; in that of `COC[C@@H]1C[C@@H](N)CN1c1ccc2c(c1)OC[C@H](NC(=O)c1sc3nc(C)ccc3c1N)C2` [Example 260, 3-amino-N-[(3R)-7-[(25,4R)-4-amino-2-(methoxymethyl)pyrrolidin-1-yl]-3,4-dihydro-2H-1-benzopyran-3-yl]-6-methylthieno[2,3-b]pyridine-2-carboxamide], 1 to 50 nM; in that of `Cc1ccc2c(N)c(C(=O)N[C@H]3COc4cc(N5C[C@@H](N)CC[C@H]5C(F)(F)F)ccc4C3)sc2n1` [Example 245, 3-amino-N-[(3R)-7-[(2S,5S)-5-amino-2-(trifluoromethyl)piperidin-1-yl]-3,4-dihydro-2H-1-benzopyran-3-yl]-6-methylthieno[2,3-b]pyridine-2-carboxamide], 50 to 200 nM. In the case of `Cc1ccc2c(N)c(C(=O)N[C@H]3COc4cc(N5C[C@H](OC(C)C)[C@@H](N)C5)ccc4C3)sc2n1` [Example 202, 3-amino-N-[(3R)-7-[(3S,4S)-3-amino-4-(propan-2-yloxy)pyrrolidin-1-yl]-3,4-dihydro-2H-1-benzopyran-3-yl]6-methylthieno[2,3-b]pyridine-2-carboxamide] it was 200 to 2000 nM. As to `Cc1ccc2c(N)c(C(=O)N[C@H]3COc4cc(N5CCO[C@H]6CNC[C@H]65)ccc4C3)sc2n1` [Example 184, N-[(3R)-7-[(4aR, 7aS)-octahydropyrrolo[3,4-b]morpholin-4-yl]-3,4-dihydro-2H-1-benzopyran-3-yl]-3-amino-6-methylthieno[2,3-b]pyridine-2-carboxamide], the 50% inhibitory concentration (IC50) fell in the range of 50 to 200 nM. In the case of `CO[C@H]1CN(c2ccc3c(n2)OC[C@H](NC(=O)c2sc4nc(C)cnc4c2N)C3)C[C@@H]1N` [Example 181, 7-amino-N-[(3R)-7-[(3S,4S)-3-amino-4-methoxypyrrolidin-1-yl]-2H,3H,4H-pyrano[2,3-b]pyridin-3-yl]-3-methylthieno[2,3-b]pyrazine-6-carboxamide] it was above 2000 nM; in that of `CO[C@@]1(C)CN(c2ccc3c(n2)CC[C@H](NC(=O)c2sc4nc(C)ccc4c2N)C3)C[C@@H]1N` [Example 210, 3-amino-N-[(6S)-2-[(3S,4S)-4-amino-3-methoxy-3-methylpyrrolidin-1-yl]-5,6,7,8-tetrahydroquinolin-6-yl]-6-methylthieno[2,3-b]pyridine-2-carboxamide], above 2000 nM.

The term IC50 denotes the point on the concentration scale where inhibition reaches its midpoint.
